Tested on: HUVEC cells (Human Umbilical Vein Endothelial Cells)
Assay: Proliferation assay with LL37-loaded nanoparticles (CCK-8)
Type: cell-based
Settings: 0.5 and 0.1 μg/ml LL37, after 48 hours, FIG. 6

**Q.** For “free LL37: Cathelicidin antimicrobial peptide LL37, SEQ ID NO 1 (LLGDFFRKSKEKIGKEFKRIVQRIKDFLRNLVPRTES), non-encapsulated”, which “cell proliferation compared with control groups” value is on record?
**A.** greater cell proliferation

From patent US10206886B2, “Lipid nanoparticles for wound healing” (Praxis Biopharma Research Institute, priority 2013, dated 2019)
